In US20250034127A1, “AUTOPHAGY INDUCING COMPOUNDS AND USES THEREOF, IN PARTICULAR FOR DISEASES OF THE CNS” (Samsara Therapeutics Inc., priority 2021, published 2025):

Columns and labels:
[1] = tested on: Human osteosarcoma U2OS cells; assay: Assay to measure lysosome and autolysosome (acidic vesicle) formation in U2OS cells; format: cell-based; conditions: Homo sapiens, concentration of 0.8 μM, read-out: Activity (percentage increase in acidic vesicle formation over the DMSO-treated control)
Method: Lysosomes play a fundamental role in the autophagic pathway by fusing with autophagosomes and creating ‘autolysosomes’ in order to digest their contents. Stimulation of lysosome and autolysosome formation by a compound is indicative of a stimulation of autophagy. The ability of compounds to stimulate lysosome and autolysosome formation, and thus autophagy, in live cells was assessed via fluorescent microscopy using various fluorescent stains for labelling and tracking acidic organelles (including lysosomes and autolysosomes) such as: LysoView™ 650 (70059 and 70059-T, Biotium), Lyso View™633 (70058 and 70058-T, Biotium) and LysoTracker™ Deep Red (L12492, ThermoFisher Scientific). The cellular phenotype was quantitatively assessed for the induction of acidic vesicle formation and compared to a non-treated control, thus providing a measure of the ability of the compound under investigation to stimulate autophagy.
Representative procedure using LysoView™ 633 dye or LysoTracker™ Deep Red dye: Human osteosarcoma U2OS cells (40,000 cells/well) were seeded in a 24 well glass bottom plate (Sensoplate, Greiner Bio-One) and were incubated overnight in a humidified atmosphere at 37° C. and 5% CO2. Cells were grown in DMEM (Gibco) supplemented with 10% Fetal Bovine Serum (FBS) and 100 units/ml penicillin and 100 μg/ml streptomycin (Invitrogen). After the attachment period, cells were treated with different compounds of interest (at various concentrations in DMSO) or DMSO (non-treated control) in cell culture medium and were incubated for 24 hours. Compound-containing medium was removed and cells were incubated with pre-warmed cell culture medium containing 1× Lyso View™ 633 (70058 and 70058-T, Biotium) or 50 nM LysoTracker™ Deep Red (L12492, ThermoFisher Scientific) for 45 minutes at 37° C. Finally, cell nuclei were stained for 10 minutes using Hoechst 33342 (1 μg/mL) and then the medium was replaced with fresh medium. The 24 well plate was then fitted into a heated stage on the microscope and cells maintained at 37° C. Images were captured using appropriate filter set for Cy5 and DAPI detection with the EVOS M7000 Microscope (ThermoFisher Scientific). The cellular phenotype was visually assessed for the induction of acidic vesicle formation relative to the non-treated control; multiple images were acquired and analysed using ImageJ or Cell Profiler.

[2] = tested on: C57BL/6JRj mice injured by intra-nigral injections of α-syn combined with conduritol B epoxide; assay: Mouse model of Parkinson's disease (intra-nigral α-syn plus CBE); format: in vivo; conditions: 30 mg/kg per os twice a day
Source text: This model (run by Neuro-Sys SAS, France) uses C57BL/6JRj mice injured by intra-nigral injections of a solution containing protofibrils of alpha-synuclein (α-syn, precisely quantified by automatic Western Blot) and combined with pharmacological inhibition of GBA by conduritol B epoxide, in aged mice. The model reproduces essential neuropathological features of PD (e.g. loss of dopaminergic neurons, α-syn aggregation, endoplasmic reticulum [ER] stress) and the neuroinflammatory response (microglia activation and release of proinflammatory cytokines) in the nigra striata area.
Animal characteristics: • Type of animal: C57BL/6JRj (Male) • Age: 18 months old • Supplier: Janvier Labs • Animal number: 7 mice per group • Acclimation and clinical signs: Animals arrived on site 7 days (one week) before the experiment to allow optimal acclimation.
• Test compound dose and administration: 30 mg/kg, per os (gavage or drinking water), twice a day • Test compound treatment: The test compound was solubilized (vehicle=water), aliquoted and stored at −20° C. Aliquots were thawed overnight at 4° C. and given twice a day (morning and afternoon). Treatment started on the day of the stereotaxic injections of α-syn preparation (Day 0). Treatment was administrated until the last day of the experiment (Day 28; =day of dissection). • CBE dose and administration: 50 mg/kg, Intraperitoneal (i.p.), twice a day. • CBE treatment: Administration of CBE (vehicle=saline [NaCl 0.9%] started on the day of the stereotaxic injections of α-syn preparation (Day 0). Treatment was administrated until the last day of the experiment (Day 28; =day of dissection), • Untreated control: vehicle (saline; i.p.) administered twice a day, […]
For overall evaluation and body mass, mice were observed daily, and body mass was monitored prior the morning drug administration. […]

[3] = day 28, compared to the α-syn/CBE injured group

CCN1CCC(N(C)C(=O)c2csc(-c3cnn(-c4ccccc4)c3)n2)CC1 [Compound 196, N-(1-ethylpiperidin-4-yl)-N-methyl-2-(1-phenyl-1H-pyrazol-4-yl)-1,3-thiazole-4-carboxamide]
activation at 0.8 µM [1]: 30 to 50% | body mass of the animals ([2]; after 4 weeks of treatment): did not significantly modify | decrease in the number of Iba1-positive microglial cells in the SNpc [2, 3]: > 15% | increase in the number of dopaminergic TH positive neurons in the SNpc [2, 3]: > 60%
